Experimental data as given in paper PMC7933434, “Entropy-driven binding of gut bacterial β-glucuronidase inhibitors ameliorates irinotecan-induced toxicity” (Communications Biology, 2021).
pIC50: −log10 of the molar value. “And” between values parts separate entries of the source, which are not always exact repeats. Equal values may be shown once. “Also recorded” adds a separate entry of the source.

Assays:
[1] = biological target: EcGUS (Escherichia coli GUS) (Escherichia coli, UniProt P05804); assay: biochemical
[2] = biological target: T1, HsGUS (human GUS) (Homo sapiens, UniProt P08236); assay: GUS inhibition assay, hydrolysis of 4-methylumbelliferyl-β-glucuronide, HsGUS; format: biochemical; details: HsGUS; at 1 mM; read-out: percentage of inhibition
T1 construct: HsGUS was prepared as described[37]; made in house
T1 sequence (P08236 23-651): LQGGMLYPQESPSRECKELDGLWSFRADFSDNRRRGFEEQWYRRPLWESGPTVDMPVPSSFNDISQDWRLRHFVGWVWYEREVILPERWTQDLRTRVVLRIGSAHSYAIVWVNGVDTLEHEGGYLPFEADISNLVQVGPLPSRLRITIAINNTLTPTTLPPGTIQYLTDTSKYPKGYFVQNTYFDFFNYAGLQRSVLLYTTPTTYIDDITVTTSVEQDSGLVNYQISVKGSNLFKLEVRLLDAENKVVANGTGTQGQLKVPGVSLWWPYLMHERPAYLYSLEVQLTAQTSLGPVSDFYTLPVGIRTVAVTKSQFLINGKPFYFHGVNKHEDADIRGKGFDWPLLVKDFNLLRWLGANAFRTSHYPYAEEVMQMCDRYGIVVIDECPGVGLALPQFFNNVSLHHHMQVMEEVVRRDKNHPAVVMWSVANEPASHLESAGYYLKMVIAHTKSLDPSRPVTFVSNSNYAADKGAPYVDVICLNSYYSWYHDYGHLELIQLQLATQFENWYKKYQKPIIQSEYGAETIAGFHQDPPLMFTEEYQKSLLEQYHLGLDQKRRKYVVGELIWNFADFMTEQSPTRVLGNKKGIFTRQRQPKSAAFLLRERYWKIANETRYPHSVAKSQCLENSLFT

[3] = system: BALB/c mice; assay: In vivo diarrhea test (CPT-11); parameters: species or system mouse; key to Diarrhea Score: 0: Normal stool; 1: Slight perianal staining of the coat; 2: Moderate perianal staining of the coat; 3: Watery mucosal-infused stool with severe perianal staining of the coat; Death
[4] = system: patients; details: patients taking irinotecan; cited from earlier work
[5] = system: BALB/c mice; assay: Colon histology (hematoxylin and eosin) after oral gavage; format: in vivo, mouse; details: female BALB/c mice; oral gavage for 5 days; 3 at 37.5 mg per kg body weight, ASN03273363 at 65 mg
[6] = Day 6, individual mice (Box 1-8)
[7] = Day 7, individual mice (Box 1-8)
[8] = Day 8, individual mice (Box 1-8)
[9] = Day 9, individual mice (Box 1-8)
[10] = Day 10, individual mice (Box 1-8)
[11] = Day 11, individual mice (Box 1-8)
[12] = Day 12, individual mice (Box 1-8)

EcGUS (Escherichia coli GUS), sequence (P05804 whole entry): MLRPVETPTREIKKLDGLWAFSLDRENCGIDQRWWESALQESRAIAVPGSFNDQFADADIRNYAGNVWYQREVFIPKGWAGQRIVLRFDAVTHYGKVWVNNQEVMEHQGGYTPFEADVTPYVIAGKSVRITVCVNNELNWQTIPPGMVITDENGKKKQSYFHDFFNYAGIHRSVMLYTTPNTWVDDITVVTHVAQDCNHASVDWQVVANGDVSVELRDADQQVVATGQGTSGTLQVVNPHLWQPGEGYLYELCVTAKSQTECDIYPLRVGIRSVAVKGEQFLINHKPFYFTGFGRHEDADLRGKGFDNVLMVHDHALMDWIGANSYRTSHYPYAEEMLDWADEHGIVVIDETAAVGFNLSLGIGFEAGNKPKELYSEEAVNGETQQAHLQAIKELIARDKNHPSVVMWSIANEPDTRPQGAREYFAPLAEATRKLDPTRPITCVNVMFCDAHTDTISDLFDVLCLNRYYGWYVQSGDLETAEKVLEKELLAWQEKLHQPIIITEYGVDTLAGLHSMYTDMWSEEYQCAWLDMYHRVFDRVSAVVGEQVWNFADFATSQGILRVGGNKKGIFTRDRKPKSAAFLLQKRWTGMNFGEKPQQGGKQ

SMILES | pIC50 [1] | inhibition at 1000 µM [2] [%] | Diarrhea Score, mean ([3]; Day 6, group mean) | Diarrhea Score [3, 6] | Diarrhea Score, mean ([3]; Day 7, group mean) | Diarrhea Score [3, 7] | Diarrhea Score, mean ([3]; Day 8, group mean) | Diarrhea Score [3, 8] | Diarrhea Score, mean ([3]; Day 9, group mean) | Diarrhea Score [3, 9] | Diarrhea Score, mean ([3]; Day 10, group mean) | Diarrhea Score [3, 10] | Diarrhea Score, mean ([3]; Day 11, group mean) | Diarrhea Score [3, 11] | Diarrhea Score, mean ([3]; Day 12, group mean) | Diarrhea Score [3, 12] | other results
CCCCCCCCC[C@@H]1NC[C@@H](O)[C@H](O)[C@H]1CO [Compound 13] | 5.44 | -0.5 |  |  |  |  |  |  |  |  |  |  |  |  |  |  | 
CCCCCC[C@@H]1NC[C@@H](O)[C@H](O)[C@H]1CO [Compound 12] | 4.60 | 0.6 |  |  |  |  |  |  |  |  |  |  |  |  |  |  | 
CCc1c2c(nc3ccc(OC(=O)N4CCC(N5CCCCC5)CC4)cc13)-c1cc3c(c(=O)n1C2)COC(=O)[C@]3(O)CC [CPT-11, Irinotecan] |  |  | 0.0 | 0 | 0.0 | 0 | 0.25 | 0 and 2 | 0.429 | 0 and D and 3 | 1.6 | 0 and D and 3 and 2 | 2.3 | 1 and D and 3 and 2 | 2.1 | 3 and 0 and D | diarrhea ([3]; BALB/c mice, CPT-11 only, 30 mg per kg daily, 10 days): developed diarrhea on day 7, until they reached a peak on day 11; also recorded: severe diarrhea from days 7–11; Mean ± SEM of Diarrhea score ([3]; day 9, Welch's unpaired t-test table): 0.0 ± 0.0 N=7; Mean ± SEM of Diarrhea score ([3]; day 10, Welch's unpaired t-test table): 0.0 ± 0.0 N=7; Mean ± SEM of Diarrhea score ([3]; day 11, Welch's unpaired t-test table): 0.2857 ± 0.1844 N=7; Mean ± SEM of Diarrhea score ([3]; day 12, Welch's unpaired t-test table): 0.3333 ± 0.2108 N=6; patients at high risk of death owing to neutropenia [4]: ~ 3.5%; patients becoming dehydrated [4]: ~ 10%; patients suffering from severe delayed diarrhea [4]: 87%
CCC[C@@H]1NC[C@@H](O)[C@H](O)[C@H]1CO [Compound 11] | 3.56 | 4.5 |  |  |  |  |  |  |  |  |  |  |  |  |  |  | 
CCCCCC[C@@H]1NC[C@@H](O)[C@H](O)[C@H]1C(=O)O [Inhibior 3] |  |  | 0.0 | 0 | 0.0 | 0 | 0.0 | 0 | 0.0 | 0 | 0.0 | 0 | 0.0 | 0 | 0.0 | 0 | 
CCOc1ccc(NC(=S)N(CCO)Cc2cc3cc(C)cc(C)c3[nH]c2=O)cc1 [ASN03273363, reference compound] |  |  |  |  |  |  |  |  |  |  |  |  |  |  |  |  | health of the epithelial layer and intestinal glandular structure (hematoxylin and eosin staining) [5]: neither compound affected the health of the epithelial layer or the intestinal glandular structure
